Read-outs that look alike come from different tables or passages of the source.
How the values were obtained:
[1] = system: HCT-116 (colorectal cancer); test: MTT cytotoxicity assay, HCT-116; format: cell-based, human; settings: for IC50: MTT, 72 h, colorectal cancer cell line HCT-116, read-out: IC50 against HCT-116; for folds cytotoxicity compared to 5-FU against HCT-116: relative to 5-fluorouracil
Protocol: (§1) The methods are provided in Supplementary material.
(§2) The newly synthesised compounds 7–21 were tested for their cytotoxicity against human cancer cell line viz. breast and colorectal using MTT assay.
(§3) Two human cancer cell lines, MCF-7 and HCT-116 were cultured in Dulbecco’s Modified Eagles Medium (DMEM) high glucose medium which was supplemented with 10% fetal bovine serum (FBS), 10,000 units/mL penicillin/streptomycin (Pen/Strep) and 1% glutamine). The above cell lines were cultured in 75 cm2 flasks and maintained at 37 °C in an incubator humidified with 5% CO2. The cell culture was performed using aseptic techniques in a Class II […]
(§4) Breast MCF-7 and colorectal HCT-116 cancer cells were added at (1 × 10^5 cells/mL) into a 96 well plate with three replicates and incubated overnight for attachment at 37°C, in 5% CO2 humidified atmosphere. Drug concentrations at 6 serial dilutions (100, 50, 10, 1, 0.5 and 0.1 μM) were added in triplicates and incubated at 37°C, 5% CO2 for 72 h. Drugs were dissolved in 0.1 % DMSO as a vehicle. Untreated cells were used as control. 5-fluorouracil (5-FU) was used as a positive control. Thereafter, each well for each time point was removed and replaced with […] of full medium containing 10% of 3-(4,5- dimethylthiaxolyl-2)-2,5-diphenyltetrazoliumbromide (MTT) (10 mg/mL). Media was removed and 100µl of DMSO was added and cells were incubated for further 5 mins at 37 °C and 5% CO2. Plates were quantified using the SpectraMax M3 plate reader at 570 nm. The percentage inhibition was calculated as 100–[(Mean OD of treated cell × 100)/Mean OD of vehicle treated cells (DMSO)]. All the experiments were repeated at least three independent experiments. […]

MCF-7 (breast cancer) = test: MTT cytotoxicity assay, MCF-7; format: cell-based, human; settings: for IC50: MTT, 72 h, breast cancer cell line MCF-7, read-out: IC50 against MCF-7; for folds activity of 5-FU against MCF-7: relative to 5-fluorouracil
Protocol: as §1, §2, §3, §4

[2] = target: thymidylate synthase (TS) (Homo sapiens, UniProt P04818); test: In vitro thymidylate synthase assay (spectrophotometric, 340 nm); format: biochemical
Protocol: TS activity was performed according to the method as described by Wahab and Friedkin[27] with a slight modification according to Santi.[28] (Refer to Supplementary material for the method.) […]
In vitro Thymidylate synthase assay
It involves a mixture containing 2-mercaptoethanol (0.1 M), (6R,S)-tetrahydrofolate (0.0003 M), formaldehyde (0.012 M), MgCl2 (0.02 M), dUMP (0.001 M), TrisHCl (0.04 M), and NaEDTA […]
(0.00075 M). This assay was done spectrophotometrically at 30° C and pH 7.4. The reaction was initiated by the addition of an amount of enzyme giving a change in absorbance at 340 nm of 0.016/min in the absence of inhibitor. The percent inhibition was determined at a minimum of four inhibitor concentrations within 20% of the 50% point. The standard deviations for […]

[3] = 30 °C, pH 7.4, read-out: TS inhibition IC50

Chain of thymidylate synthase (TS) (P04818 whole entry): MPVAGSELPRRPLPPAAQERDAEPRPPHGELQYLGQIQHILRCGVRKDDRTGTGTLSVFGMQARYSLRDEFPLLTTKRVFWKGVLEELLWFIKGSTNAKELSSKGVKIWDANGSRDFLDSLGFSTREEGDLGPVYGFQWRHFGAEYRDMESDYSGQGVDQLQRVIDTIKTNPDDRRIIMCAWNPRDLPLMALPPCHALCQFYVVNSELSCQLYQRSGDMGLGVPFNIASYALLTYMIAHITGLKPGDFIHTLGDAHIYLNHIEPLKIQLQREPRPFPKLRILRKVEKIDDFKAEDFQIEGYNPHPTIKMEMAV

COc1ccc(/C=C2\SC(=O)N(Cc3nnc(COc4ccccc4)o3)C2=O)cc1 [Compound 16, (Z)-5-(4-methoxybenzylidene)-3-((5-(phenoxymethyl)-1,3,4-oxadiazol-2-yl)methyl)thiazolidine-2,4-dione]
IC50 ([1]; Homo sapiens, HCT-116, 72 h): 67.1 µM | melting point: 152 to 153 °C | IC50 (MCF-7 (breast cancer); Homo sapiens, MCF7, 72 h): 58.4 µM

COc1ccc(/C=C2\SC(=O)N(Cc3nnc(-c4ccccc4C)o3)C2=O)cc1 [Compound 13, (Z)-5-(4-methoxybenzylidene)-3-((5-o-tolyl-1,3,4-oxadiazol-2-yl)methyl)thiazolidine-2,4-dione]
IC50 ([1]; Homo sapiens, HCT-116, 72 h): 58.6 µM | IC50 (MCF-7 (breast cancer); Homo sapiens, MCF7, 72 h): 56.3 µM

COc1ccc(/C=C2\SC(=O)N(Cc3nnc(-c4ccccc4Cl)o3)C2=O)cc1 [Compound 9, (Z)-5-(4-methoxybenzylidene)-3-((5-(2-chlorophenyl)-1,3,4-oxadiazol-2-yl)methyl)thiazolidine-2,4-dione]
IC50 ([1]; Homo sapiens, HCT-116, 72 h): 12.8 µM | folds cytotoxicity compared to 5-FU against HCT-116 [1]: 3.1 folds | melting point: 276 to 277 °C | IC50 (MCF-7 (breast cancer); Homo sapiens, MCF7, 72 h): 7.47 µM | IC50 (MCF-7 (breast cancer)): 7.74 µM | folds activity of 5-FU against MCF-7 (MCF-7 (breast cancer)): 4.5 folds | IC50 [2, 3]: 1.67 µM

COc1ccc(/C=C2\SC(=O)N(Cc3nnc(-c4cccc(Cl)c4)o3)C2=O)cc1 [Compound 8, (Z)-5-(4-methoxybenzylidene)-3-((5-(3-chlorophenyl)-1,3,4-oxadiazol-2-yl)methyl)thiazolidine-2,4-dione]
IC50 ([1]; Homo sapiens, HCT-116, 72 h): 56.8 µM | IC50 (MCF-7 (breast cancer); Homo sapiens, MCF7, 72 h): 56 µM

COc1ccc(/C=C2\SC(=O)N(Cc3nnc(COc4cccc5cccnc45)o3)C2=O)cc1 [Compound 21, (Z)-5-(4-methoxybenzylidene)-3-((5-((quinolin-8-yloxy)methyl)-1,3,4-oxadiazol-2-yl)methyl) thiazolidine-2,4-dione]
IC50 ([1]; Homo sapiens, HCT-116, 72 h): 63.1 µM | melting point: 161 to 162 °C | IC50 (MCF-7 (breast cancer); Homo sapiens, MCF7, 72 h): 62 µM

COc1ccc(/C=C2\SC(=O)N(Cc3nnc(COc4cccc5ccccc45)o3)C2=O)cc1 [Compound 19, (Z)-5-(4-methoxybenzylidene)-3-((5-((naphthalen-1-yloxy)methyl)-1,3,4-oxadiazol-2-yl)methyl) thiazolidine-2,4-dione]
IC50 ([1]; Homo sapiens, HCT-116, 72 h): 69.5 µM | melting point: 220 to 221 °C | IC50 (MCF-7 (breast cancer); Homo sapiens, MCF7, 72 h): 61.6 µM

COc1ccc(/C=C2\SC(=O)N(Cc3nnc(-c4ccc(Br)cc4)o3)C2=O)cc1 [Compound 10, (Z)-5-(4-methoxybenzylidene)-3-((5-(4-bromophenyl)-1,3,4-oxadiazol-2-yl)methyl)thiazolidine-2,4-dione]
IC50 ([1]; Homo sapiens, HCT-116, 72 h): 16.1 µM | folds cytotoxicity compared to 5-FU against HCT-116 [1]: 2.5 folds | IC50 (MCF-7 (breast cancer); Homo sapiens, MCF7, 72 h): 7.87 µM | folds activity of 5-FU against MCF-7 (MCF-7 (breast cancer)): 4.4 folds | IC50 [2, 3]: 2.21 µM

COc1ccc(/C=C2\SC(=O)N(Cc3nnc(-c4ccc(C)cc4)o3)C2=O)cc1 [Compound 11, (Z)-5-(4-methoxybenzylidene)-3-((5-p-tolyl-1,3,4-oxadiazol-2-yl)methyl)thiazolidine-2,4-dione]
IC50 ([1]; Homo sapiens, HCT-116, 72 h): 68.1 µM | melting point: 197 to 198 °C | IC50 (MCF-7 (breast cancer); Homo sapiens, MCF7, 72 h): 58.4 µM

COc1ccc(/C=C2\SC(=O)N(Cc3nnc(COc4cccc(Cl)c4Cl)o3)C2=O)cc1 [Compound 18, (Z)-3-((5-((2,3-dichlorophenoxy)methyl)-1,3,4-oxadiazol-2-yl)methyl)-5-(4-methoxybenzylidene)thiazolidine-2,4-dione]
IC50 ([1]; Homo sapiens, HCT-116, 72 h): > 100 µM | melting point: 209 to 210 °C | IC50 (MCF-7 (breast cancer); Homo sapiens, MCF7, 72 h): > 100 µM

O=c1[nH]cc(F)c(=O)[nH]1 [Compound 5-FU, 5-fluorouracil, reference compound]
IC50 ([1]; Homo sapiens, HCT-116, 72 h): 40.5 µM | IC50 (MCF-7 (breast cancer); Homo sapiens, MCF7, 72 h): 34.8 µM

Nc1nc2[nH]cc(CCc3ccc(C(=O)N[C@@H](CCC(=O)O)C(=O)O)cc3)c2c(=O)[nH]1 [PTX, Pemetrexed, reference compound]
IC50 [2]: 8.2 µM

COc1ccc(/C=C2\SC(=O)N(Cc3nnc(COc4ccc5ccccc5c4)o3)C2=O)cc1 [Compound 20, (Z)-5-(4-methoxybenzylidene)-3-((5-((naphthalen-3-yloxy)methyl)-1,3,4-oxadiazol-2-yl)methyl) thiazolidine-2,4-dione]
IC50 ([1]; Homo sapiens, HCT-116, 72 h): > 100 µM | melting point: 210 to 211 °C | IC50 (MCF-7 (breast cancer); Homo sapiens, MCF7, 72 h): > 100 µM

COc1ccc(/C=C2\SC(=O)N(Cc3nnc(-c4ccccc4)o3)C2=O)cc1 [Compound 7, (Z)-5-(4-methoxybenzylidene)-3-((5-phenyl-1,3,4-oxadiazol-2-yl)methyl)thiazolidine-2,4-dione]
IC50 ([1]; Homo sapiens, HCT-116, 72 h): 57.3 µM | IC50 (MCF-7 (breast cancer); Homo sapiens, MCF7, 72 h): 53.5 µM

COc1ccc(/C=C2\SC(=O)N(Cc3nnc(-c4cccc([N+](=O)[O-])c4)o3)C2=O)cc1 [Compound 14, (Z)-5-(4-methoxybenzylidene)-3-((5-(3-nitrophenyl)-1,3,4-oxadiazol-2-yl)methyl)thiazolidine-2,4-dione]
IC50 ([1]; Homo sapiens, HCT-116, 72 h): 42.2 µM | IC50 [1]: 42.2 µM | IC50 (MCF-7 (breast cancer); Homo sapiens, MCF7, 72 h): 43.4 µM | IC50 [2, 3]: 9.4 µM

COc1ccc(/C=C2\SC(=O)N(Cc3nnc(COc4cccc(Cl)c4)o3)C2=O)cc1 [Compound 17, (Z)-3-((5-((3-chlorophenoxy)methyl)-1,3,4-oxadiazol-2-yl)methyl)-5-(4-methoxybenzylidene)thiazolidine-2,4-dione]
IC50 ([1]; Homo sapiens, HCT-116, 72 h): 55.5 µM | melting point: 142 to 143 °C | IC50 (MCF-7 (breast cancer); Homo sapiens, MCF7, 72 h): 65.2 µM

COc1ccc(/C=C2\SC(=O)N(Cc3nnc(-c4cccc(C)c4)o3)C2=O)cc1 [Compound 15, (Z)-5-(4-methoxybenzylidene)-3-((5-m-tolyl-1,3,4-oxadiazol-2-yl)methyl)thiazolidine-2,4-dione]
IC50 ([1]; Homo sapiens, HCT-116, 72 h): 39.6 µM | IC50 (MCF-7 (breast cancer); Homo sapiens, MCF7, 72 h): 47.8 µM | IC50 [2, 3]: 7.9 µM

COc1ccc(/C=C2\SC(=O)N(Cc3nnc(-c4ccccc4O)o3)C2=O)cc1 [Compound 12, (Z)-5-(4-methoxybenzylidene)-3-((5-(2-hydroxyphenyl)-1,3,4-oxadiazol-2-yl)methyl)thiazol idine-2,4-dione]
IC50 ([1]; Homo sapiens, HCT-116, 72 h): 58.6 µM | IC50 (MCF-7 (breast cancer); Homo sapiens, MCF7, 72 h): 56.3 µM

Source: publication PMC7241536, “Design, synthesis and in vitro antiproliferative activity of new thiazolidinedione-1,3,4-oxadiazole hybrids as thymidylate synthase inhibitors” (Journal of Enzyme Inhibition and Medicinal Chemistry, 2020)
